ChEMBL document CHEMBL1131526, “Non-peptidic HIV protease inhibitors: C2-symmetry-based design of bis-sulfonamide dihydropyrones” (Bioorg Med Chem Lett, 1998)

How the values were obtained:
[1] = molecular target: Human immunodeficiency virus type 1 protease (Human immunodeficiency virus 1, UniProt Q72874); test: Compound was evaluated for in vitro inhibition of human immunodeficiency virus type 1 (HIV-1) Protease
[2] = Compound was evaluated for in vitro inhibition of human immunodeficiency virus type 1 (HIV-1) Protease
[3] = molecular target: Human immunodeficiency virus type 1 protease (Human immunodeficiency virus 1) (UniProt Q72874); test: Compound was evaluated for in vitro inhibition of human immunodeficiency virus type 1 (HIV-1) Protease at 1 uM concentration

SMILES	Ki [1]	IC50 [2]	inhibition [3]
CCC(C1=C(O)OC(CC)(c2cccc(NS(=O)(=O)c3cn(C)cn3)c2)CC1=O)c1cccc(NS(=O)(=O)c2cn(C)cn2)c1 (stereo unspecified)	4.7 nM		
CCCC1(CCc2ccccc2)CC(=O)C(C(CC)c2cccc(NS(=O)(=O)c3cn(C)cn3)c2)=C(O)O1 (stereo unspecified)	1 nM	500 nM	
CCC(C1=C(O)OC(CC)(c2cccc(NS(=O)(=O)c3cccc4cccnc34)c2)CC1=O)c1cccc(NS(=O)(=O)c2cccc3cccnc23)c1 (stereo unspecified)			35%
CCC(C1=C(O)OC(CC)(c2cccc(NS(=O)(=O)c3ccc(C#N)cc3)c2)CC1=O)c1cccc(NS(=O)(=O)c2ccc(C#N)cc2)c1 (stereo unspecified)			19%
CCC(C1=C(O)OC(CC)(c2cccc(NS(=O)(=O)c3ccc(C#N)cn3)c2)CC1=O)c1cccc(NS(=O)(=O)c2ccc(C#N)cn2)c1 (stereo unspecified)	0.1 nM		
